According to article PMC10762078, “Role of UPF1-LIN28A interaction during early differentiation of pluripotent stem cells” (Nature Communications, 2024):
Ends that are not written are not given here.

Legend:
[1] = test system: lineage markers in CHA15 cells; assay: RNA-seq of CHA15 cells during ectodermal, mesodermal and endodermal differentiation with CPP-peptides (Fig. 7a); assay type: cell-based, Homo sapiens; conditions: CHA15, 5 days
Description: For CPP-conjugated peptide delivery, HeLa, 293T, and PA-1 cells were incubated with CPP-conjugated peptides or CPP-FITC at 2 μM in DMEM with 10% FBS for 12 h a day before cell harvest. hPSCs were treated with CPP-conjugated peptides at 10 μM in mTeSR Plus Medium, and the peptide-containing medium was changed every day over 10 days. The ROCK inhibitor (Tocris Bioscience, Y-27632) treated-hPSCs were dissociated into single cells using Accutase (Merck, SCR005) and differentiated into ectoderm, mesoderm, and endoderm using the STEMdiff Trilineage Differentiation Kit ([…] Technologies, 05230) following the manufacturer’s protocol. Differentiated cells treated with CPP-conjugated peptides were analysed at 0, 3, and 5 days for ectoderm and endoderm, and at 0, 3, and 4 days for mesoderm.
Total RNA concentration was calculated using Quant-IT RiboGreen (Invitrogen, R11490). […] The libraries were quantified using the KAPA Library Quantification Kits for Illumina Sequencing platforms according to the qPCR Quantification Protocol Guide (KAPA BIOSYSTEMS, KR0405) and qualified using the TapeStation D1000 ScreenTape (Agilent). […]
We pre-processed the raw reads from the sequencer to remove low-quality reads and adapter sequences before analysis and aligned the processed reads to Homo sapiens (GRCh37) using HISAT v2.1.0[52]. […]

[2] = test system: nonsense-mediated mRNA decay (NMD); assay: NMD reporter (Gl, GPx1) mRNA by RT-qPCR in LIN28A-expressing HeLa cells with CPP-peptides (Fig. 5c); assay type: cell-based; conditions: FLAG control (no LIN28A) HeLa, CPP-peptide
[3] = test system: human fetal neural stem cells (VM-NSCs or CTX-NSCs); assay: H2O2-stressed human fetal neural stem cells: survival and neuronal markers (peer review file); assay type: cell-based; conditions: compared with CPP-P1
Text: 4. In addition to identifying the differentiation markers, what are the effects of LIN28A-UPF1 interactions on the functional differentiation phenotypes?
We observed that the levels of stem cell markers, POU5F1 (OCT4) and NANOG, were reduced when UPF1 and LIN28A interaction was disrupted by the […]
To determine the effects of CPP-P8 during […]
split every 4~6-days. After CPP-P8 treatment, the cell phenotypes treated with CPP-P8 looked more like the spontaneous differentiated cells than the ones treated with CPP-P1 and CPP-P2 (Fig. 6c and Supplementary Fig. 6b in the revised manuscript).
The final experiment to determine the functional phenotypes used treated human fetal neural stem cells (ventral midbrain (VM)-NSCs or cortex (CTX)-NSCs), which was stressed by H2O2, with the peptides (CPP-P1 or P8), and differentiation to neurons was initiated. The immunofluorescence results […]
neuron markers, Tyrosine hydroxylase (TH) and TUJ1 compared with CPP-P1 treatment. We are preparing another manuscript to show the effects of CPP-P8 on neuronal differentiation, we would like […]
We hope our additional experiments have addressed the reviewer’s concern.
Original Manuscript Revised Manuscript
Fig. 1e Supplementary Fig. 6b
(1 picture or pasted object on this page, not shown here)

For “KKKWCRKKKSSADEKRYRALKRTAERELLMNA [CPP-P8, CPP conjugated to P8]”, the “ectodermal marker levels” value [1] was “overall reduced the levels of its marker, in contrast to mesodermal and endodermal differentiation”.
In the case of “N-QKLDQKELQLEPM-C [P1, reference compound]”, the “relative GPx1 mRNA level” value ([2]; normalised to MUP, replicate set2) was 1.035, the “relative Gl mRNA level” value ([2]; normalised to MUP, replicate set3) was 1.014 and the “GPx1 mRNA, mean” value ([2]; mean in t-test output, n = 3) was 0.2656. For the same substance, the “Gl mRNA, mean” value ([2]; mean in t-test output, n = 3) was 0.4223.
KKKWCRKKKSSADEKRYRALKRTAERELLMNA [P8] was tested, and the “cell survival” value ([3]; DAPI staining) was “increased cell survival (DAPI staining)” and the “dopaminergic neuron markers TH and TUJ1” value [3] was “upregulated dopaminergic”.
